According to US20030215462A1, “Use of UGT inhibitors to increase bioavailability” (priority 2001, published 2003):
“And” between values parts separate entries of the source, which are not always exact repeats. Equal values may be shown once.

Legend:
[1] = tested on: T1, UGT enzymes of human liver microsomes; test: Inhibition of 7-HFC glucuronidation in human liver microsomes; type: biochemical; conditions: for % of control metabolism (SD, n = 3), 7-HFC glucuronidation: 7-HFC 50 μM, human liver microsomes 100 μg/ml, 15 min
T1 construct: percentage of control metabolism, 7-HFC glucuronidation; percentage of control metabolism, 7-HFC glucuronidation

UGT1A3 = target: T2, UGT1A3 (Homo sapiens, UniProt P35503); test: Inhibition of raloxifene glucuronidation by recombinant UGT1A3 Supersomes; conditions: for activity at 15 min, 10 µM / activity at 15 min, 25 µM / activity at 15 min, 50 µM: human; for activity at 15 min, 10 µM: inhibitor 10 μM; for activity at 15 min, 25 µM: inhibitor 25 μM; for activity at 15 min, 50 µM: inhibitor 50 μM
T2 sequence (P35503 29-534): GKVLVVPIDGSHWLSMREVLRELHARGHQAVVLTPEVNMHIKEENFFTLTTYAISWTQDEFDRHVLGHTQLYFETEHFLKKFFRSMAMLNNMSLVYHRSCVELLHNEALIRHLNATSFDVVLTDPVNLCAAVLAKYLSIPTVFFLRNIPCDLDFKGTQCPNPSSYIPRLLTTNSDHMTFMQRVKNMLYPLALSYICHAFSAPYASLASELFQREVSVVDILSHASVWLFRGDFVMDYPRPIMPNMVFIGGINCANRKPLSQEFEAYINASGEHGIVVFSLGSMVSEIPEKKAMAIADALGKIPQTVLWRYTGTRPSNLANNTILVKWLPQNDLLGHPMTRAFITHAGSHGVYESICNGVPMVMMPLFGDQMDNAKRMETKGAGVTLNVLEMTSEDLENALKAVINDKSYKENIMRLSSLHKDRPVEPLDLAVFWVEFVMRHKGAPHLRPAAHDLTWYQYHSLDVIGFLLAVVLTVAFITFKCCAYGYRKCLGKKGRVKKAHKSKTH
Protocol: (§2) Compounds were eluted using a binary solvent gradient system. Solvent A was water brought to pH 8 with NH4OH. Solvent B was methanol. Solvent flow rate was 1 ml/min and the column temperature was maintained at 50° C. Detection was at 280 nm. […] The system was then returned to the initial conditions and equilibrated for 3 min.

UGT1A10 = target: T3, UGT1A10 (Homo sapiens, UniProt Q9HAW8); test: in vitro; conditions: pH 7.5, % of control metabolism
T3 sequence (Q9HAW8 26-530): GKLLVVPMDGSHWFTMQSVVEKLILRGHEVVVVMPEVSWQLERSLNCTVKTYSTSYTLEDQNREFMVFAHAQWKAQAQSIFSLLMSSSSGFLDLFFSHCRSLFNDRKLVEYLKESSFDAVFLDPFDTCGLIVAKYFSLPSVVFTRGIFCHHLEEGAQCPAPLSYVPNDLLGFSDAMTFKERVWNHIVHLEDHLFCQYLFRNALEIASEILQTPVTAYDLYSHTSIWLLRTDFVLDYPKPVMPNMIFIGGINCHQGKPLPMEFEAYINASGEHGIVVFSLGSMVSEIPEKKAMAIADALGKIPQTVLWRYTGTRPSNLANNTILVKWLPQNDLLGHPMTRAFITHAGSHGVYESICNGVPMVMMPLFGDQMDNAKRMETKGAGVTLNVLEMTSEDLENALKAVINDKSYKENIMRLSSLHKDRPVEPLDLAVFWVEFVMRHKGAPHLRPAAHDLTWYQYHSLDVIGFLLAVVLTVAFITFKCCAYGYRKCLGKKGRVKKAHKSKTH
Protocol: as §2

UGT1A1 = target: T4, UGT1A1 (Homo sapiens, UniProt P22309); test: in vitro
T4 sequence (P22309 26-533): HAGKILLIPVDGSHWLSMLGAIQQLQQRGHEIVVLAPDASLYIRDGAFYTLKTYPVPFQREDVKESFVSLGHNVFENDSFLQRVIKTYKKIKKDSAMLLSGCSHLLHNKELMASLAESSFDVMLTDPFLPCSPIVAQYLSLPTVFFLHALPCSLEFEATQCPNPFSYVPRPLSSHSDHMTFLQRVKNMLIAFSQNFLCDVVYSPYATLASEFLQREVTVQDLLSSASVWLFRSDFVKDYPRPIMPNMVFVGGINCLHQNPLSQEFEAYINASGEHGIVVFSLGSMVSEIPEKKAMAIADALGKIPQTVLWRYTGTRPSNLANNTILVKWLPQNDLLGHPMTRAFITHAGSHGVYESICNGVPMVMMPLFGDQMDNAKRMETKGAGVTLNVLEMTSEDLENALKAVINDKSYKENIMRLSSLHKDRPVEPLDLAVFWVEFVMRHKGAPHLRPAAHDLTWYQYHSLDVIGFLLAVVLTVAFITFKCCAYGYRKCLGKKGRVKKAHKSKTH
Protocol: as §2

[2] = tested on: T5, UGT enzymes of human liver microsomes; test: Inhibition of estradiol (E2) glucuronidation in human liver microsomes; type: biochemical; conditions: liver 032101, E2 50 μM
T5 construct: residual metabolism (% of control), E2-17-β-D-glucuronide; other: liver 032101; residual metabolism (% of control), E2-17-β-D-glucuronide
From the text: (§1) Compounds were eluted using a binary solvent gradient system where solvent A was dilute phosphoric acid (pH 3) and solvent B was 80:20 acetonitrile-methanol. […] Detection was at 280 nm.

[3] = tested on: T6, UGT enzymes of human liver microsomes; test: as above; type: biochemical; conditions: liver 032101, E2 50 μM
T6 construct: residual metabolism (% of control), E2-3-β-D-glucuronide; other: liver 032101; residual metabolism (% of control), E2-3-β-D-glucuronide
From the text: as §1

[4] = tested on: UGT enzymes of human liver microsomes; test: as above; type: biochemical; conditions: E2 50 μM
From the text: as §1

[5] = tested on: UGT enzymes of human liver microsomes; test: Inhibition of labetalol glucuronidation (LG1, LG2) in human liver microsomes; type: biochemical; conditions: labetalol 50 μM; inhibitor 500 μM
[6] = Supersomes with recombinant human UGT1A3, pH 7.5, probe raloxifene 50 μM, formation of glucuronide G1, % of control metabolism, raloxifene G1, UGT1A3
[7] = Supersomes with recombinant human UGT1A3, pH 7.5, probe raloxifene 50 μM, formation of glucuronide G2, % of control metabolism, raloxifene G2, UGT1A3
[8] = recombinant UGT1A3 Supersomes, pH 7.5, probe raloxifene 50 μM (formation of glucuronide G1), Inhibition of raloxifene glucuronidation, G1, UGT1A3, G1, raloxifene 50 μM, 250 μg/ml Supersomes, 1 mM UDPGA, 15 min
[9] = recombinant UGT1A3 Supersomes, pH 7.5, probe raloxifene 50 μM (formation of glucuronide G2), Inhibition of raloxifene glucuronidation, G2, UGT1A3, G2, raloxifene 50 μM, 250 μg/ml Supersomes, 1 mM UDPGA, 15 min
[10] = pH 7.5, % of control metabolism, raloxifene G1
[11] = pH 7.5, % of control metabolism, raloxifene G2
[12] = pH 7.5, Inhibition of raloxifene glucuronidation, G1, UGT1A1
[13] = pH 7.5, Inhibition of raloxifene glucuronidation, G2, UGT1A1

`O=c1c(O)c(-c2ccc(O)c(O)c2)oc2cc(O)cc(O)c12` [Quercetin] was tested, and the “percentage of control metabolism, 7-HFC glucuronidation” value (“percentage of control metabolism” below) ([1]; inhibitor 100 μM) was 58 (1) %, the “% of control metabolism (SD, n = 3), 7-HFC glucuronidation” value ([1]; inhibitor 100 μM) was 58 (1) % and the “percentage of control metabolism” value ([1]; inhibitor 200 μM) was 53 (1) %. The “% of control metabolism (SD, n = 3), 7-HFC glucuronidation” value ([1]; inhibitor 200 μM) was 53 (1) %, the “percentage of control metabolism” value ([1]; inhibitor 500 μM) was 52 (1) % and the “% of control metabolism (SD, n = 3), 7-HFC glucuronidation” value ([1]; inhibitor 500 μM) was 52 (1), % and 62 (1) %. The “inhibition of raloxifene glucuronidation, in words” value (UGT1A3; UGT1A3) was “good inhibitor”, the activity at 15 min, 10 µM (UGT1A3; [6]) was 81% and the activity at 15 min, 25 µM (UGT1A3; [6]) was 53%. For the same compound, the activity at 15 min, 50 µM (UGT1A3; [6]) was 28%, the activity at 15 min, 10 µM (UGT1A3; [7]) was 56% and the activity at 15 min, 25 µM (UGT1A3; [7]) was 49%. It also gave an activity at 15 min, 50 µM (UGT1A3; [7]) of 25%, an activity at 15 min, 10 µM (UGT1A3; [8]) of 72% and an activity at 15 min, 25 µM (UGT1A3; [8]) of 52%. For the same compound, the activity at 15 min, 50 µM (UGT1A3; [8]) was 28%, the activity at 15 min, 10 µM (UGT1A3; [9]) was 73% and the activity at 15 min, 25 µM (UGT1A3; [9]) was 49%. The activity at 15 min, 50 µM (UGT1A3; [9]) was 25%, the activity at 15 min, 25 µM (UGT1A10; raloxifene G1) was 80% and the activity at 15 min, 50 µM (UGT1A10; raloxifene G1) was 55%. It also gave an activity at 15 min, 25 µM (UGT1A10; raloxifene G2) of 80%, an activity at 15 min, 50 µM (UGT1A10; raloxifene G2) of 48% and an activity at 15 min, 10 µM (UGT1A1; [10]) of 45%. It also gave an activity at 15 min, 25 µM (UGT1A1; [10]) of 13%, an activity at 15 min, 50 µM (UGT1A1; [10]) of 2% and an activity at 15 min, 10 µM (UGT1A1; [11]) of 43%. It also gave an activity at 15 min, 25 µM (UGT1A1; [11]) of 13%, an activity at 15 min, 50 µM (UGT1A1; [11]) of 3% and an activity at 15 min, 2 μM (UGT1A1; [12]) of 89%. For the same compound, the activity at 15 min, 5 µM (UGT1A1; [12]) was 71%, the activity at 15 min, 25 µM (UGT1A1; [12]) was 13% and the activity at 15 min, 50 µM (UGT1A1; [12]) was 2%. It also gave an activity at 15 min, 2 μM (UGT1A1; [13]) of 90%, an activity at 15 min, 5 µM (UGT1A1; [13]) of 70% and an activity at 15 min, 25 µM (UGT1A1; [13]) of 13%. For the same compound, the activity at 15 min, 50 µM (UGT1A1; [13]) was 3%, the “residual metabolism (% of control), E2-17-β-D-glucuronide” value ([2]; inhibitor 50 μM) was 72 (6) % and the “residual metabolism (% of control), E2-17-β-D-glucuronide” value ([2]; inhibitor 100 μM) was 50 (3) %. The “residual metabolism (% of control), E2-3-β-D-glucuronide” value ([3]; inhibitor 50 μM) was 29 (1) %, the “residual metabolism (% of control), E2-3-β-D-glucuronide” value ([3]; inhibitor 100 μM) was 10 (1) % and the “residual metabolism (% of control), E2-3-β-D-glucuronide” value ([4]; liver 032101, inhibitor 25 μM) was 58 (1) %. For the same compound, the “residual metabolism (% of control), E2-17-β-D-glucuronide” value ([4]; liver 032101, inhibitor 25 μM) was 94 (3) %, the “residual metabolism (% of control), E2-3-β-D-glucuronide” value ([4]; liver 062101, inhibitor 25 μM) was 56 (3) % and the “residual metabolism (% of control), E2-17-β-D-glucuronide” value ([4]; liver 062101, inhibitor 25 μM) was 83 (1) %. The “residual metabolism (% of control), E2-3-β-D-glucuronide” value ([4]; liver 062101, inhibitor 50 μM) was 30 (1) %, the “residual metabolism (% of control), E2-17-β-D-glucuronide” value ([4]; liver 062101, inhibitor 50 μM) was 69 (1) % and the “residual metabolism (% of control), E2-3-β-D-glucuronide” value ([4]; liver 062101, inhibitor 100 μM) was 19 (1) %. The “residual metabolism (% of control), E2-17-β-D-glucuronide” value ([4]; liver 062101, inhibitor 100 μM) was 57 (2) %, the “residual metabolism (percentage of control), labetalol LG1” value [5] was 36 (3) % and the “residual metabolism (percentage of control), labetalol LG2” value [5] was 23 (1) %.
